Measured values reported in patent publication US20260217692A1 (Ascentage Pharma (Suzhou) Co., Ltd., priority 2023, published 2026).
Structures can show the parent of a compound that is named as a salt.

Columns and labels:
Format in all cases: physicochemical
[1] = Stability of crystal forms under stability test conditions (appearance, XRPD, HPLC); settings: for Total impurities: HPLC
Description: The samples were placed under the stability conditions shown in the following table, sampling was performed at the corresponding time points, and the samples were subjected to appearance and XRPD tests. […] The stability results obtained are recorded in the following table. […] The samples were placed under the stability test conditions shown in the following table, sampling was performed at different time points, and the samples were subjected to the XRPD test. […] The samples were placed in an open state under the stability test conditions of 40° C./75% RH and 90% RH; and the samples were placed in a closed state at 60° C. in a light box (the test samples in the dark were placed in the same manner as the illumination test samples, and the treatment was performed in the dark). Sampling was performed at different time points, and the samples were subjected to the XRPD test. […] The samples were placed under the stability conditions shown in the following table, sampling was performed at the corresponding time points, and the samples were subjected to appearance and XRPD tests. […] The stability results obtained are recorded in the following table.

[2] = Dynamic vapor sorption (DVS) hygroscopicity test; settings: 25° C. and 80% RH
Source text: In the present disclosure, the DVS test parameters are set as follows: [table]

[3] = Polymorph screening test, suspension method (crystal form by XRPD after stirring in solvent); settings: for Crystal form (XRPD): free base screening, 3 days
Description: (or 50° C.) for 3 days in the dark and centrifuged to remove the supernatant; the resulting precipitate was dried under vacuum (25° C., −0.1 MPa); and the resulting solid was collected and subjected to the XRPD test. The results are as follows:
(or 50° C./80° C.) for 3 days in the dark and centrifuged to remove the supernatant; and the resulting precipitate was dried under vacuum (25° C., −0.1 MPa).
(or 50° C.) for 3 days in the dark and centrifuged to remove the supernatant; and the resulting precipitate was dried under vacuum (25° C., −0.1 MPa).

[4] = 0 d, listed as Phosphate crystal form E

SMILES: Cc1cc(Nc2ncc(Cl)c(Nc3ccccc3S(=O)(=O)C(C)C)n2)c(OC(C)C)cc1C1=CCN(C2CCOCC2)CC1 [listing 1 of 3 here]
- Total impurities ([1]; 0 d, listed as Tartrate crystal form C): 0.28%
- Total impurities ([1]; 40° C./75% RH, 1 M, listed as Tartrate crystal form C): 0.38%
- Total impurities ([1]; 40° C./75% RH, 10 d, listed as Tartrate crystal form C): 0.37%
- Total impurities ([1]; 60° C., 1 M, listed as Tartrate crystal form C): 0.47%
- Total impurities ([1]; 60° C., 10 d, listed as Tartrate crystal form C): 0.41%
- Total impurities ([1]; 90% RH, 1 M, listed as Tartrate crystal form C): 0.59%
- Total impurities ([1]; 90% RH, 10 d, listed as Tartrate crystal form C): 0.48%
- Total impurities ([1]; Illumination, 5 d, listed as Tartrate crystal form C): 1.01%
- Appearance ([1]; Illumination, 5 d and 10 d): Color deepening
- Total impurities ([1]; Illumination, 10 d, listed as Tartrate crystal form C): 1.04%

SMILES: Cc1cc(Nc2ncc(Cl)c(Nc3ccccc3S(=O)(=O)C(C)C)n2)c(OC(C)C)cc1C1=CCN(C2CCOCC2)CC1 [crystal form C]
- hygroscopic weight gain (DVS curve) [2]: 0.31±0.005%

SMILES: Cc1cc(Nc2ncc(Cl)c(Nc3ccccc3S(=O)(=O)C(C)C)n2)c(OC(C)C)cc1C1=CCN(C2CCOCC2)CC1 [one equivalent of citrate crystal form B]
- Total impurities ([1]; 0 d): 0.18%
- Total impurities ([1]; 40° C./75% RH, 1 M): 0.19%
- Total impurities ([1]; 40° C./75% RH, 10 d): 0.19%
- Total impurities ([1]; 60° C., 1 M): 0.22%
- Total impurities ([1]; 60° C., 10 d): 0.19%
- Total impurities ([1]; 90% RH, 1 M): 0.19%
- Total impurities ([1]; 90% RH, 10 d): 0.18%
- Total impurities ([1]; Illumination, 5 d): 0.48%
- Appearance ([1]; Illumination, 5 d and 10 d): Color deepening
- Total impurities ([1]; Illumination, 10 d): 0.55%
- stability of crystal form in solvents, citrate polymorph screening test ([3]; in solvents): relatively good stability
- crystal form when stirred in solvent ([3]; methanol, ethanol, acetonitrile, acetone, ethyl acetate, dichloromethane, tetrahydrofuran, n-heptane, dioxane, or mixed solvent of methanol, acetonitrile, or acetone with water, 40° C.): remained stable

SMILES: Cc1cc(Nc2ncc(Cl)c(Nc3ccccc3S(=O)(=O)C(C)C)n2)c(OC(C)C)cc1C1=CCN(C2CCOCC2)CC1 [listing 2 of 3 here]
- Total impurities [1, 4]: 1.24%
- Crystal form (XRPD) [1, 4]: Significant change
- Total impurities ([1]; 40° C./75% RH, 1 M, listed as Phosphate crystal form E): 1.69%
- Total impurities ([1]; 40° C./75% RH, 10 d, listed as Phosphate crystal form E): 1.79%
- Crystal form (XRPD) ([1]; 40° C./75% RH, 10 d and 1 M, listed as Phosphate crystal form E): Significant change
- Total impurities ([1]; 60° C., 1 M, listed as Phosphate crystal form E): 2.74%
- Total impurities ([1]; 60° C., 10 d, listed as Phosphate crystal form E): 3.26%
- Crystal form (XRPD) ([1]; 60° C., 10 d and 1 M, listed as Phosphate crystal form E): Significant change
- Total impurities ([1]; 90% RH, 1 M, listed as Phosphate crystal form E): 3.03%
- Total impurities ([1]; 90% RH, 10 d, listed as Phosphate crystal form E): 2.13%
- Crystal form (XRPD) ([1]; 90% RH, 10 d and 1 M, listed as Phosphate crystal form E): Significant change
- Total impurities ([1]; Illumination, 5 d, listed as Phosphate crystal form E): 3.02%
- Crystal form (XRPD) ([1]; Illumination, 5 d and 10 d, listed as Phosphate crystal form E): Significant change
- Total impurities ([1]; Illumination, 10 d, listed as Phosphate crystal form E): 5.00%

SMILES: Cc1cc(Nc2ncc(Cl)c(Nc3ccccc3S(=O)(=O)C(C)C)n2)c(OC(C)C)cc1C1=CCN(C2CCOCC2)CC1 [listing 3 of 3 here]
- Crystal form (XRPD) ([3]; suspension in 1,4-Dioxane, 25° C.): Crystal form G
- Crystal form (XRPD) ([3]; suspension in 1,4-Dioxane, 50° C.): Crystal form D
- Crystal form (XRPD) ([3]; suspension in 2-MeTHF, 25° C.): Crystal form D
- Crystal form (XRPD) ([3]; suspension in 2-MeTHF, 50° C.): Crystal form D
- Crystal form (XRPD) ([3]; suspension in ACN/water (1/1, v/v), 25° C.): Crystal form D
- Crystal form (XRPD) ([3]; suspension in ACN/water (1/1, v/v), 50° C.): Crystal form D
- Crystal form (XRPD) ([3]; suspension in Acetone, 25° C.): Crystal form E
- Crystal form (XRPD) ([3]; suspension in Acetone, 50° C.): Crystal form E
- Crystal form (XRPD) ([3]; suspension in Acetone/water (1:1, v/v), 25° C.): Crystal form D
- Crystal form (XRPD) ([3]; suspension in Acetone/water (1:1, v/v), 50° C.): Crystal form D
- Crystal form (XRPD) ([3]; suspension in Acetonitrile, 25° C.): Crystal form D
- Crystal form (XRPD) ([3]; suspension in Acetonitrile, 50° C.): Crystal form D
- Crystal form (XRPD) ([3]; suspension in Cyclohexane, 25° C.): Crystal form D
- Crystal form (XRPD) ([3]; suspension in Cyclohexane, 50° C.): Crystal form D
- Crystal form (XRPD) ([3]; suspension in Dichloromethane, 25° C.): No solid sample was obtained
- Crystal form (XRPD) ([3]; suspension in Dichloromethane, 50° C.): No solid sample was obtained
- Crystal form (XRPD) ([3]; suspension in Ethanol, 25° C.): Crystal form B
- Crystal form (XRPD) ([3]; suspension in Ethanol, 50° C.): Crystal form D
- Crystal form (XRPD) ([3]; suspension in Ethyl acetate, 25° C.): Crystal form D
- Crystal form (XRPD) ([3]; suspension in Ethyl acetate, 50° C.): Crystal form D
- Crystal form (XRPD) ([3]; suspension in Isopropanol, 25° C.): Crystal form C
- Crystal form (XRPD) ([3]; suspension in Isopropanol, 50° C.): Crystal form D
- Crystal form (XRPD) ([3]; suspension in Isopropyl acetate, 25° C.): Crystal form D
- Crystal form (XRPD) ([3]; suspension in Isopropyl acetate, 50° C.): Crystal form D
- Crystal form (XRPD) ([3]; suspension in MA, 25° C.): Crystal form D
- Crystal form (XRPD) ([3]; suspension in MA, 50° C.): Crystal form D
- Crystal form (XRPD) ([3]; suspension in MEK, 25° C.): Crystal form D
- Crystal form (XRPD) ([3]; suspension in MEK, 50° C.): Crystal form D
- Crystal form (XRPD) ([3]; suspension in MIBK, 25° C.): Crystal form D
- Crystal form (XRPD) ([3]; suspension in MIBK, 50° C.): Crystal form D
- Crystal form (XRPD) ([3]; suspension in MeOH/water (1:1, v/v), 25° C.): Crystal form D
- Crystal form (XRPD) ([3]; suspension in MeOH/water (1:1, v/v), 50° C.): Crystal form D
- Crystal form (XRPD) ([3]; suspension in Methanol, 25° C.): Crystal form A
- Crystal form (XRPD) ([3]; suspension in Methanol, 50° C.): Crystal form I
- Crystal form (XRPD) ([3]; suspension in Methyl tert-butyl ether, 25° C.): Crystal form D
- Crystal form (XRPD) ([3]; suspension in Methyl tert-butyl ether, 50° C.): Crystal form C
- Crystal form (XRPD) ([3]; suspension in Tetrahydrofuran, 25° C.): Crystal form F
- Crystal form (XRPD) ([3]; suspension in Tetrahydrofuran, 50° C.): No solid sample was obtained
- Crystal form (XRPD) ([3]; suspension in Toluene, 25° C.): Crystal form D
- Crystal form (XRPD) ([3]; suspension in Toluene, 50° C.): No solid sample was obtained
- Crystal form (XRPD) ([3]; suspension in Water, 25° C.): Crystal form H
- Crystal form (XRPD) ([3]; suspension in Water, 50° C.): Crystal form J
- Crystal form (XRPD) ([3]; suspension in n-Heptane, 25° C.): Crystal forms C + D
- Crystal form (XRPD) ([3]; suspension in n-Heptane, 50° C.): Crystal forms C + D
- Crystal form (XRPD) ([3]; suspension in n-Hexane, 25° C.): Crystal form D
- Crystal form (XRPD) ([3]; suspension in n-Hexane, 50° C.): Crystal form D

SMILES: Cc1cc(Nc2ncc(Cl)c(Nc3ccccc3S(=O)(=O)C(C)C)n2)c(OC(C)C)cc1C1=CCN(C2CCOCC2)CC1 [one equivalent of tartrate crystal form B]
- stability of crystal form in solvent, suspension method ([3]; acetone, tetrahydrofuran, n-heptane, or dioxane): relatively good stability
- crystal form when stirred in solvent ([3]; acetone, tetrahydrofuran, n-heptane, or dioxane at 40° C.): remained stable
